The text below walks through data of patent US12643881B2, “Bicyclic amine CDK12 inhibitors” (Incyte Corporation, priority 2021, dated 2026).

The target in the test is T1, CDK12 complexed with Cyclin K (Homo sapiens, UniProt Q9NYV4).
T1 construct: GST (N)
T1 sequence (Q9NYV4 whole entry): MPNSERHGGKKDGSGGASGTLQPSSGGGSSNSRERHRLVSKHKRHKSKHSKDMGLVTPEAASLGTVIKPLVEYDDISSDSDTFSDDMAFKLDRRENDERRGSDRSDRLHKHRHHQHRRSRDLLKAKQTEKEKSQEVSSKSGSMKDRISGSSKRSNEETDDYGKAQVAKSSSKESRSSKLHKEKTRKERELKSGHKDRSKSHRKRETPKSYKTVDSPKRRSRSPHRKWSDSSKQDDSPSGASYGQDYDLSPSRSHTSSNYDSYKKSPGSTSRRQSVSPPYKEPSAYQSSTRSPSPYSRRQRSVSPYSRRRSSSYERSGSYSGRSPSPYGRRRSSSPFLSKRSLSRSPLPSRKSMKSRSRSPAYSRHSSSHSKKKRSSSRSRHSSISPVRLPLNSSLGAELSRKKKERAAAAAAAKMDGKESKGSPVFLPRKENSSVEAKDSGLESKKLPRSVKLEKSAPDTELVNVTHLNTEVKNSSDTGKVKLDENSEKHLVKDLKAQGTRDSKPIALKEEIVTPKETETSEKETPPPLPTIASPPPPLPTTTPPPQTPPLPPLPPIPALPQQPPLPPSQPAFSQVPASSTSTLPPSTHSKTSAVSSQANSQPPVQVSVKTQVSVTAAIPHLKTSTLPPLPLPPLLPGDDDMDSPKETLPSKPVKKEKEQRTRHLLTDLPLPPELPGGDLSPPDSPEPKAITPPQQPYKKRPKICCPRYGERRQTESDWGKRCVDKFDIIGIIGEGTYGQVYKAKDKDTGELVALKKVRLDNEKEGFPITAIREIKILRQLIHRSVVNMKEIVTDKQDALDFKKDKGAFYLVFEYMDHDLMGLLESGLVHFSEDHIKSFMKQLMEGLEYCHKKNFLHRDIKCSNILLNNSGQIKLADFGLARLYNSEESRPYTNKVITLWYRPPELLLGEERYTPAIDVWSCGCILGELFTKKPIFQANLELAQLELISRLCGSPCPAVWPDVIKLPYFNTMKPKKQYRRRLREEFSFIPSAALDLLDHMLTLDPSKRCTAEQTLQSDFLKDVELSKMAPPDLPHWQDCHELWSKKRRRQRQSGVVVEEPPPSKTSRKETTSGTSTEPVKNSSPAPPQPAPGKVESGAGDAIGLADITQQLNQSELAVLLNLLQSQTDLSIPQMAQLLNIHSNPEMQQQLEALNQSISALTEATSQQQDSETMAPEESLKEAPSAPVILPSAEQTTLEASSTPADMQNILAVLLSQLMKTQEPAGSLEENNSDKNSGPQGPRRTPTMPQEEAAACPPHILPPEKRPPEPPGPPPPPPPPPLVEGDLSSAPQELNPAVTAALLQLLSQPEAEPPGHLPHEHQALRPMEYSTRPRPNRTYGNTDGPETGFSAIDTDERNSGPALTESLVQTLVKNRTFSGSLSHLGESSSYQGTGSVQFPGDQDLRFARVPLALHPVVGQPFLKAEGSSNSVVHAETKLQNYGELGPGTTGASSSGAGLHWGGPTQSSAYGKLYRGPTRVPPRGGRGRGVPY
T1 sequence (O75909 whole entry partner): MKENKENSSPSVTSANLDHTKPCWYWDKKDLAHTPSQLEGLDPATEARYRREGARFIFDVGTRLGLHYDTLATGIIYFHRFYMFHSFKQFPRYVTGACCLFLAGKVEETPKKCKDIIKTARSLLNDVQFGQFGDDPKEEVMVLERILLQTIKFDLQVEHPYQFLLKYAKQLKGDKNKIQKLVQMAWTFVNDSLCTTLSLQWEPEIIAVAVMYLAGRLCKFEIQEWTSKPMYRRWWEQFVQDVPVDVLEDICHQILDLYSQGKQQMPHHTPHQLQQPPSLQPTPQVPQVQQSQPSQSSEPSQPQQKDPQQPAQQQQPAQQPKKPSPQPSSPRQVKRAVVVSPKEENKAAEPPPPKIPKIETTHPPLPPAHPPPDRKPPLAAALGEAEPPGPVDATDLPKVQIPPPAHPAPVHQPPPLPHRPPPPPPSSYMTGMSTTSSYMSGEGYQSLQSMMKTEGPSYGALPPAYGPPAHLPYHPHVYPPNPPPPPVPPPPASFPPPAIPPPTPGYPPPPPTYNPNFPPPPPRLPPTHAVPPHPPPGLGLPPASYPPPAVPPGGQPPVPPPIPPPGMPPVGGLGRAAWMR
As to the kind of experiment: CDK Enzymatic Assays (HTRF, LANCE Ultra kinase assay), Example A1. Type of test: biochemical. The following applies: enzyme pre-incubated with compounds for 60 minutes prior to addition of ATP (1 mM final) and Ulight-peptide; reaction 60-90 minutes at room temperature. The text has this: Example A1. CDK Enzymatic Assays
The following activity of the CDK enzymes in complex with their respective cyclins we assayed: CDK1 complexed with Cyclin B1; CDK2 complexed with Cyclin E1; CDK4 complexed with Cyclin D1; CDK6 complexed with Cyclin D1; CDK6 complexed with Cyclin D3; CDK9 complexed with Cyclin T1; CDK7 complexed with Cyclin H/MAT1; CDK2 complexed with Cyclin A2; CDK5 complexed with p35; CDK12 complexed with Cyclin K; CDK13 complexed with Cyclin K. These in vitro enzyme activity are assayed using homogeneous time-resolved energy transfer (HTRF), which measures phosphorylation of a peptide substrate. The LANCER Ultra kinase assay (PerkinElmer) uses a ULight™-labeled EIF4E-binding protein 1 (THR37/46) peptide (DYSTTPGGTLFSTTPGTRI (SEQ ID NO: 1)) substrate and a Europium-labeled anti-phospho-4E-BP1 antibody (CDK2, CDK1, CDK4, CDK6, CDK9, CDK12, CDK13) or ULight™-labeled Myelin Basic Protein peptide (VTPRTPPP (SEQ ID NO: 2)) substrate and a Europium-labeled anti-phospho-MBP antibody (CDK7). Each CDK enzyme activity assays utilized human CDK co-expressed as N-terminal GST-tagged protein with its full length cyclin partner using a baculovirus expression system.
Enzyme was pre-incubated with compounds for 30 minutes (CDK1,2,4,6,9) or 60 minutes (CDK7, CDK12, CDK13) prior to addition of ATP and Ulight-peptide (1 mM and 50 nM final, respectively), in assay buffer containing 50 mM HEPES pH 7.5, 1 mM EGTA, 10 mM MgCl2, 2 mM DTT, 0.05 mg/mL BSA, and 0.01% Tween 20. The reaction was then incubated for 60-90 minutes at room temperature. The reactions were stopped by the addition of EDTA and Europium labeled antibody, for a final concentration of 15 mM and 1.0-1.5 nM, respectively. HTRF signals were read after 15-120 minutes. A ratio of fluorescence transferred to the labeled substrate (665 nm) relative to fluorescence of the Europium donor (620 nm) represents the extent of phosphorylation. Ratios for treated wells were normalized to DMSO only (100% activity) and no enzyme (0% activity) controls. Normalized data was analyzed using a three or four parameter dose response curve to determine IC50 for each compound and are shown in Table A. Control reference inhibitors were included on each plate.
For orientation: TR-FRET usually uses a lanthanide donor and a delayed reading to cut background.
As usually defined, the IC50 is the concentration needed to halve the response being measured. Turning to `C=CC(=O)Nc1ccc2c(N3CCC[C@@H](Nc4ncc(C#N)c(OC)n4)C3)nn(C)c2c1` [Example 43, (R)—N-(3-(3-((5-Cyano-4-methoxypyrimidin-2-yl)amino)piperidin-1-yl)-1-methyl-1H-indazol-6-yl)acrylamide], the IC50 is below 50 nM.
Consider `C=CC(=O)Nc1ccc2c(c1)C(=O)N([C@H]1CCC[C@@H](Nc3ncc(C(F)(F)F)c(NC)n3)C1)C2` [Example 78, N-(2-((1S,3R)-3-((4-(Methylamino)-5-(trifluoromethyl)pyrimidin-2-yl)amino)cyclohexyl)-3-oxoisoindolin-5-yl)acrylamide], for which the IC50 is below 50 nM.
Take `C=CC(=O)Nc1ccc2c(c1)C(=O)N([C@H]1CCC[C@@H](Nc3ncc(C(F)(F)F)s3)C1)C2` [Example 29, N-(3-Oxo-2-((1S,3R)-3-((5-(trifluoromethyl)thiazol-2-yl)amino)cyclohexyl)isoindolin-5-yl)acrylamide]: the half-inhibitory concentration (IC50) was below 50 nM.
The value for `C=CC(=O)Nc1ccc2c(c1)C(=O)N([C@H]1CCC[C@@H](Nc3ncc(C)c(C(F)(F)F)n3)C1)C2` [Example 5, N-(2-((1S,3R)-3-((5-Methyl-4-(trifluoromethyl)pyrimidin-2-yl)amino)cyclohexyl)-3-oxoisoindolin-5-yl)acrylamide] was below 50 nM.
`COc1nc(N[C@@H]2CCC[C@H](c3nc4cc(NC(=O)C5OC5C(=O)O)ccc4n3C)C2)ncc1C#N` (stereo partly drawn) [Example 51, 3-((2-((1S,3R)-3-((5-Cyano-4-methoxypyrimidin-2-yl)amino)cyclohexyl)-1-methyl-1H-benzo[d]imidazol-5-yl)carbamoyl)oxirane-2-carboxylic acid]: the IC50 lay within 50 to 500 nM.
Consider `C=CC(=O)Nc1ccc2c(c1)nc(N1C[C@H](F)C[C@@H](Nc3ncc(C#N)cn3)C1)n2C` [Example 89, N-(2-((3R,5R)-3-((5-Cyanopyrimidin-2-yl)amino)-5-fluoropiperidin-1-yl)-1-methyl-1H-benzo[d]imidazol-5-yl)acrylamide], for which the IC50 is below 50 nM.
As for `C=CC(=O)Nc1ccc2c(c1)C(=O)N([C@H]1CCC[C@@H](Nc3ncc(Cl)c(OC)n3)C1)C2` [Example 81, N-(2-((1S,3R)-3-((5-Chloro-4-methoxypyrimidin-2-yl)amino)cyclohexyl)-3-oxoisoindolin-5-yl)acrylamide], the IC50 was below 50 nM.
Under `COc1nc(N[C@@H]2CCC[C@H](N3Cc4ccc(NC(=O)/C=C/CF)cc4C3=O)C2)ncc1C#N` [Example 57, (E)-N-(2-((1S,3R)-3-((5-Cyano-4-methoxypyrimidin-2-yl)amino)cyclohexyl)-3-oxoisoindolin-5-yl)-4-fluorobut-2-enamide] stands 50 to 500 nM; under `C=CC(=O)Nc1ccc2c(c1)nc(N1C[C@H](O)C[C@@H](Nc3ncc(C(F)(F)F)cn3)C1)n2C` [Example 88, N-(2-((3R,5R)-3-Hydroxy-5-((5-(trifluoromethyl)pyrimidin-2-yl)amino)piperidin-1-yl)-1-methyl-1H-benzo[d]imidazol-5-yl)acrylamide], below 50 nM; under `C=CC(=O)Nc1cccc2c1ncn2[C@H]1CCC[C@@H](Nc2ncc(C#N)c(OC)n2)C1` [Example 27, N-(1-((1S,3R)-3-((5-Cyano-4-methoxypyrimidin-2-yl)amino)cyclohexyl)-1H-benzo[d]imidazol-4-yl)acrylamide], below 50 nM.
Turning to `C=CC(=O)Nc1ccc2c(c1)C(=O)N([C@H]1CCC[C@@H](Nc3ncc(C4CC4)cn3)C1)C2` [Example 11, N-(2-((1S,3R)-3-((5-Cyclopropylpyrimidin-2-yl)amino)cyclohexyl)-3-oxoisoindolin-5-yl)acrylamide], the half-inhibitory concentration (IC50) lay in the range of 50 to 500 nM.
Regarding `C=CC(=O)Nc1ccc2c(c1)nnn2[C@H]1CCC[C@@H](Nc2ncc(C#N)cn2)C1` [Example 71, N-(1-((1S,3R)-3-((5-Cyanopyrimidin-2-yl)amino)cyclohexyl)-1H-benzo[d][1,2,3]triazol-5-yl)acrylamide], the IC50 is below 50 nM.
Take `C=CC(=O)Nc1ccc2c(c1)C(=O)N([C@H]1CCC[C@@H](Nc3cc(C(F)(F)F)c(C#N)cn3)C1)C2` [Example 18, N-(2-((1S,3R)-3-((5-Cyano-4-(trifluoromethyl)pyridin-2-yl)amino)cyclohexyl)-3-oxoisoindolin-5-yl)acrylamide]: the IC50 is below 50 nM.
`C=CC(=O)Nc1ccc2nc(N3CCC[C@@H](Nc4ncc(C#N)c(OC)n4)C3)nn2c1` [Example 44, (R)—N-(2-(3-((5-Cyano-4-methoxypyrimidin-2-yl)amino)piperidin-1-yl)-[1,2,4]triazolo[1,5-a]pyridin-6-yl)acrylamide]: the IC50 was below 50 nM.
For `C=CC(=O)Nc1nc2c(N3CC[C@@H](Nc4ncc(C#N)c(OC)n4)C3)nccn2n1` [Example 3, (R)—N-(8-(3-((5-Cyano-4-methoxypyrimidin-2-yl)amino)pyrrolidin-1-yl)-[1,2,4]triazolo[1,5-a]pyrazin-2-yl)acrylamide], the half-inhibitory concentration (IC50) is below 50 nM.
Turning to `C=CC(=O)Nc1ccc2c(c1)nc(N1C[C@H](F)C[C@@H](Nc3ncc(C(F)(F)F)cn3)C1)n2C` [Example 93, N-(2-((3R,5R)-3-Fluoro-5-((5-(trifluoromethyl)pyrimidin-2-yl)amino)piperidin-1-yl)-1-methyl-1H-benzo[d]imidazol-5-yl)acrylamide], the IC50 was below 50 nM.
Take `C=CC(=O)Nc1cncc2sc(N3CC[C@@H](Nc4ncc(C#N)c(OC)n4)C3)nc12` [Example 38, (R)—N-(2-(3-((5-Cyano-4-methoxypyrimidin-2-yl)amino)pyrrolidin-1-yl)thiazolo[5,4-c]pyridin-7-yl)acrylamide]: the 50% inhibitory concentration (IC50) is below 50 nM.
With `C=CC(=O)Nc1nn(C)c2cc(N3CCC[C@@H](Nc4ncc(C#N)c(OC)n4)C3)ncc12` [Example 1, (R)—N-(6-(3-((5-Cyano-4-methoxypyrimidin-2-yl)amino)piperidin-1-yl)-1-methyl-1H-pyrazolo[4,3-c]pyridin-3-yl)acrylamide], the 50% inhibitory concentration (IC50) is below 50 nM.
`C=CC(=O)Nc1cc2nc(N3CC[C@H](F)[C@@H](Nc4ncc(C(F)(F)F)cn4)C3)n(C)c2cc1C` [Example 99, N-(2-((3S,4S)-4-Fluoro-3-((5-(trifluoromethyl)pyrimidin-2-yl)amino)piperidin-1-yl)-1,6-dimethyl-1H-benzo[d]imidazol-5-yl)acrylamide]: the concentration for half-maximal inhibition (IC50) was below 50 nM.
For `C=CC(=O)Nc1ccc2c(c1)C(=O)N([C@H]1CCC[C@@H](Nc3ncc(C#N)c(N4CCOCC4)n3)C1)C2` [Example 76, N-(2-((1S,3R)-3-((5-Cyano-4-morpholinopyrimidin-2-yl)amino)cyclohexyl)-3-oxoisoindolin-5-yl)acrylamide], the IC50 is below 50 nM.
Under `C=CC(=O)Nc1ccc2c(c1)cc(N1CCC[C@@H](Nc3ncc(C#N)c(OC)n3)C1)n2C` [Example 39, (R)—N-(2-(3-((5-Cyano-4-methoxypyrimidin-2-yl)amino)piperidin-1-yl)-1-methyl-1H-indol-5-yl)acrylamide] stands above 500 nM.
Turning to `C=CC(=O)Nc1nn(C)c2cc(N3CC[C@@H](Nc4ncc(C#N)c(OC)n4)C3)ncc12` [Example 2, (R)—N-(6-(3-((5-Cyano-4-methoxypyrimidin-2-yl)amino)pyrrolidin-1-yl)-1-methyl-1H-pyrazolo[4,3-c]pyridin-3-yl)acrylamide], the IC50 was below 50 nM.
Take `C=CC(=O)Nc1ccc2sc(N3CC[C@@H](Nc4ncc(C#N)c(OC)n4)C3)nc2c1` [Example 41, (R)—N-(2-(3-((5-Cyano-4-methoxypyrimidin-2-yl)amino)pyrrolidin-1-yl)benzo[d]thiazol-5-yl)acrylamide]: the IC50 is below 50 nM.
Regarding `C=CC(=O)Nc1ccc2c(c1)C(=O)N([C@H]1CCC[C@@H](Nc3ncc(OC(F)F)cn3)C1)C2` [Example 6, N-(2-((1S,3R)-3-((5-(Difluoromethoxy)pyrimidin-2-yl)amino)cyclohexyl)-3-oxoisoindolin-5-yl)acrylamide], the IC50 is below 50 nM.
As to `CCC(Br)C(=O)Nc1ccc2c(c1)nc([C@H]1CCC[C@@H](Nc3ncc(C#N)c(OC)n3)C1)n2C` (stereo partly drawn) [Example 49, 2-Bromo-N-(2-((1S,3R)-3-((5-cyano-4-methoxypyrimidin-2-yl)amino)cyclohexyl)-1-methyl-1H-benzo[d]imidazol-5-yl)butanamide], the IC50 was below 50 nM.
`C=CC(=O)Nc1ccc2c(c1)nc([C@H]1CCC[C@@H](Nc3ncc(C#N)c(OC)n3)C1)n2C` [Example 73, N-(2-((1S,3R)-3-((5-Cyano-4-methoxypyrimidin-2-yl)amino)cyclohexyl)-1-methyl-1H-benzo[d]imidazol-5-yl)acrylamide]: the IC50 was below 50 nM.
